Experimental data published in US10996205B2, “Stress biomarkers and related non-invasive detection methods” (ARIZONA BOARD OF REGENTS ON BEHALF OF THE UNIVERSITY OF …, priority 2015, dated 2021).

Assay: Stability of cortisol in human eccrine sweat at room temperature
Procedure: To test the stability of cortisol in human eccrine sweat in order to improve sweat collection method and procedures, aliquots of the same sweat samples were left at room temperature for a duration of 3 hours, with each aliquots analyzed every 30 minutes in first hour and every hour afterwards.
Spiked human eccrine sweat samples were tested over a period of 3 hours at room temperature.

cortisol loss in spiked human eccrine sweat (period of 3 hours at room temperature): No measurable cortisol loss | Concentration (spiked sweat, 0 minutes at room temperature): 29.191 ng/mL | Concentration (spiked sweat, 30 minutes at room temperature): 36.802 ng/mL | Concentration (spiked sweat, 1 hour at room temperature): 30.807 ng/mL | Concentration (spiked sweat, 2 hours at room temperature): 30.228 ng/mL | Concentration (spiked sweat, 3 hours at room temperature): 29.515 ng/mL | Concentration (unspiked human eccrine sweat): 3.488 ng/mL
SMILES: C[C@]12CCC(=O)C=C1CC[C@@H]1[C@@H]2[C@@H](O)C[C@@]2(C)[C@H]1CC[C@]2(O)C(=O)CO [cortisol, 4-PREGNEN-11β, 17, 21-TRIOL-3, 20-DIONE]
